In one data set the test system is gastric mucosa. Description: Ethanol-induced gastric mucosal injury in rats (action of protecting gastric mucosa). As to conditions: Rattus norvegicus, po; 6 rats per group; 1, 3, 10 and 30 mg/kg into stomach; 100% ethanol 1 ml orally 30 min later; lesions measured 60 min after ethanol; read-out: Action of protecting gastric mucosa ID50. In kind it is in vivo, Male Sprague-Dawley rats. How it is done: As a method of determining the protecting ability of gastric mucosa, gastric mocosal injury induced by ethanol [Robert A., Gastroenterology 77, 761 (1979)] is often used. This method was applied to evaluation of the compounds of this invention. Male Sprague-Dawley rats of 7-weeks old were fasted for 24 hours. These animals were administered test compounds into stomach by using a gastric tube. After 30 minutes, 1 ml of 100% ethanol was administered orally. The animals were killed by carbon dioxide gas 60 minutes after ethanol administration. The stomach was removed together with the lower part of esophagus and the duodenum. The esophagus was clipped, 10 ml of 1% formalin solution was instilled into the stomach from the duodenum, and then the duodenum was clipped. The whole stomach was immersed in 1% formalin solution. About 15 minutes later, the stomachs were opened along the greater curvature. The length of the lesions which occurred in the gastric antral mucosa was measured under a dissecting microscope with a square-grid eye piece (×10). The sum total length of the individual lesions in each animal was measured, and the average value per group was calculated. Based on the difference between the average value of each group and that of the control group, the inhibition rate was determined. The test compound was suspended in a 5% gum arabic solution, and administered in a volume of 2 ml/kg. | ^(a) Using 6 rats per group, each of the test compounds was | administered in a dose of 1, 3, 10 and 30 mg/kg to determine ID50.

A further data set has as its system mice. Description: Oral toxicity in mice. In kind it is in vivo. The conditions noted are these: oral administration, 500 mg/kg.

Molecules are shown by their SMILES.

With `COc1ccnc(C[S+]([O-])c2nc3cc(C(F)(F)F)ccc3[nH]2)c1C` (centres unmarked) [R^1 =5-CF3, R^2 =CH3, R^3 =CH3, R^4 =H, reference compound], the ED50 in the data set with gastric mucosa was 24 mg/kg.
Still for that read-out and setting: then `CCCCOc1ccnc(C[S+]([O-])c2nc3ccccc3[nH]2)c1` (centres unmarked) [R^1 =H, R^2 =H, R^3 =(CH2)3 CH3, R^4 =H], with 9.8 mg/kg; and `CCCCCCOc1ccnc(C[S+]([O-])c2nc3ccccc3[nH]2)c1` (centres unmarked) [R^1 =H, R^2 =H, R^3 =(CH2)5 CH3, R^4 =H], with 1.6 mg/kg.
Take `CC(C)Oc1ccnc(C[S+]([O-])c2nc3ccccc3[nH]2)c1` (centres unmarked) [R^1 =H, R^2 =H, R^3 =CH(CH3)2, R^4 =H]: the ED50 in the data set with gastric mucosa was found to be 1.3 mg/kg.
Take `COc1ccc2[nH]c([S+]([O-])Cc3ncc(C)c(OC)c3C)nc2c1` (centres unmarked) [reference compound]: in the data set on gastric mucosa, the ED50 was 22 mg/kg.
For the compound `CCCOc1ccnc(C[S+]([O-])c2nc3ccccc3[nH]2)c1` (centres unmarked) [R^1 =H, R^2 =H, R^3 =(CH2)2 CH3, R^4 =H], the ED50 in the data set with gastric mucosa was 7.2 mg/kg. Moreover, the fatal effect entry in the data set with mice is on record as “no fatal effect”.
For `CC(C)Oc1ccnc(C[S+]([O-])c2nc3cc(F)ccc3[nH]2)c1` (centres unmarked) [R^1 =5-F, R^2 =H, R^3 =CH(CH3)2, R^4 =H], the ED50 in the data set on gastric mucosa was 8.8 mg/kg.
The same measure, in the same setting: in the case of `CCCOc1ccnc(C[S+]([O-])c2nc3ccccc3[nH]2)c1C` (centres unmarked) [2-[3-methyl-4-propoxy-2-pyridyl)methylsulfinylbenzimidazole] it was 12.5 mg/kg; in that of `CC(C)Oc1ccnc(C[S+]([O-])c2nc3cc(C(F)(F)F)ccc3[nH]2)c1` (centres unmarked), 5.8 mg/kg; in that of `CCCCCCCCOc1ccnc(C[S+]([O-])c2nc3ccccc3[nH]2)c1` (centres unmarked) [R^1 =H, R^2 =H, R^3 =(CH2)7 CH3, R^4 =H], 1.6 mg/kg.

For the origin of these results see US4727150A, “Pyridyl methylsulfinyl benzimidazole derivatives” (Takeda Chemical Industries, Ltd., priority 1984, dated 1988).
